Reference: patent US10881656B2, “HIF inhibitors and use thereof” (The General Hospital Corporation, priority 2008, dated 2021)

What was measured:
[1] = test system: HIF-1a; experiment: Western blot for HIF-1a in hypoxic CWR22R and Hep3B cells; type: cell-based, human; settings: hypoxia
Experimental: The consensus sequence of the loop and the mandatory 5′ cytosine bulge are highlighted with light blue circles. […] Duplicate plates of 786-O derived lines expressing the putative wild-type or mutant HIF-1a IRE were cultured in the presence of compound as described for FIG. 1, with the exception that one set was placed at 1% oxygen for 24 hours following the first day's medium-change. Cells were treated with M, medium only; D, DMSO; or compounds, as indicated at the following concentrations: 40, 40 μM; 41, 30 μM; 76, 10 μM; 77, 5 μM. […] CWR22R or Hep3B cells were treated with compound and subjected to hypoxia as described above. B-Actin is shown for loading control. Cells were treated with M, medium only; D, DMSO; or compounds, as indicated at the following concentrations: 40, 40 μM; 41, 30 μM; 76, 20 μM; 77, 7.5 μM.
Hypoxia stabilized HIF-2a in VHL-reconstituted WT8 cells, but treatment with compounds diminished hypoxia-induced HIF-2a expression (FIG. 3C).

[2] = test system: HIF and VHL target genes; experiment: Gene expression profiling and gene set enrichment analysis (GSEA) of compound treated 786-O cells; type: cell-based, human; settings: for regulation of HIF target genes: 786-O cells at experimentally determined IC50 concentrations; for NES, gene set PRC3, VHL null (markers of PRC3 cells compared to WT8 cells) / NES, gene set Schofield, HIF (validated HIF-regulated genes) / NES, gene set Staller, VHL WT (markers of VHL WT cells compared to VHL null cells) / NES, gene set Staller, VHL null (markers of VHL null cells compared to VHL WT cells) / NES, gene set WT8, VHL WT (markers of WT8 cells compared to PRC3 cells): 786-O cells, GSEA normalized enrichment score
Experimental: RNA from compound treated 786-O cells was isolated as described for qRT-PCR experiments. Labeled cRNA was prepared and hybridized to Affymetrix U133 Plus 2.0 microarrays according to the manufacturer's protocols. Scans were processed using Affymetrix MASS software and median scaled. Gene expression values less than a minimum threshold of 20 or a maximum threshold of 16000 were set to 20 and 16000, respectively. Genes with minimal variation across the dataset were discarded (maximum/minimum<3 or maximum−minimum<100). Class neighbors were identified with GenePattern software using the signal to noise metric (Golub et al., 1999). Hierarchical clustering was performed using dCHIP software. Gene set enrichment analysis was performed as described (Mootha et al., 2003) and significance was determined by permutation of the gene labels. Gene expression signatures were analyzed using the Connectivity Map webtool (build 01). Full details of the Connectivity Map dataset and analytics are provided elsewhere (Lamb et al., 2006). For PGJ2 expression analysis, raw gene-expression data have GEO series accession number GSE13818 and compound signatures from which non-HG-U133A probe sets were removed (see Table 6) were used to query the Connectivity Map (build 02).
Total RNA was extracted from stable 786-O derived VHL-reconstituted (WT8), HIF-2a knock down (pTR) and their respective vector only control (PRC3 and pTV) cells and labeled cRNA was hybridized to oligonucleotide arrays. […] Compound-treated parental 786-O cells were subjected to the same analysis. […] The gene set enrichment analysis (GSEA) algorithm was used to investigate whether the compounds affected the expression of genes identified as VHL and HIF targets in other cell types (Mootha et al., 2003).

[3] = molecular target: T1, IRP1 binding to HIF-2a IRE (Homo sapiens, UniProt P21399); experiment: Electrophoretic mobility shift assay, HIF-2a IRE probe; settings: for binding of IRP1 to HIF-2a IRE probe: lysates of treated 786-O cells, EMSA
T1 sequence (P21399 1-889): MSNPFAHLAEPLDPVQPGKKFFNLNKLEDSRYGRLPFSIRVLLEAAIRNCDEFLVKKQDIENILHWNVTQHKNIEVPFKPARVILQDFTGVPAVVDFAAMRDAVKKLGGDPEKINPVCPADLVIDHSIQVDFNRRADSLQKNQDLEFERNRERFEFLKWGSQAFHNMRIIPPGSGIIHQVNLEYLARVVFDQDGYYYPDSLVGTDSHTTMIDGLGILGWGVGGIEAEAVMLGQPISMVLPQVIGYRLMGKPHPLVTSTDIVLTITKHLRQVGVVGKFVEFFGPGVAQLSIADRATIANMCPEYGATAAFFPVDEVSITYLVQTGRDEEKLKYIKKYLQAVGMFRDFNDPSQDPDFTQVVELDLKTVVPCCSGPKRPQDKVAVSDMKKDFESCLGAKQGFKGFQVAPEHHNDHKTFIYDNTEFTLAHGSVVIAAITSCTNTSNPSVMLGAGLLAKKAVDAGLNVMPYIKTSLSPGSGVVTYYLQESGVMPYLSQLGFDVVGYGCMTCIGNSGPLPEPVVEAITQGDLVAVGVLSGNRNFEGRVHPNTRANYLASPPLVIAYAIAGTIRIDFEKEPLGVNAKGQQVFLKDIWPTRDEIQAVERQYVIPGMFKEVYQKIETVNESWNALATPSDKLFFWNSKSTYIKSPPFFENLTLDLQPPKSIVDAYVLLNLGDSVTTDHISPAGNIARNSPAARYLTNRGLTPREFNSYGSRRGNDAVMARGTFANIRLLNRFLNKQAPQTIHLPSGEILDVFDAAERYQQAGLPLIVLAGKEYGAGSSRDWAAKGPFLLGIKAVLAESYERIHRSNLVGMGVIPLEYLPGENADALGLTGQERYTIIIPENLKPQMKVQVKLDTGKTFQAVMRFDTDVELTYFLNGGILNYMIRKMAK
Experimental: EMSAs were performed as described previously (Fillebeen et al., 2003). Briefly, 50 μg lysate from 786-O cells treated with medium only, DMSO, or compounds were incubated with 25,000 cpm wild-type or mutant radiolabeled HIF-2a IRE probe for 20 minutes at room temperature before loading onto non-denaturing acrylamide gels. Supershifts were performed identically, save that 0.2 μg control, IRP1 or IRP2 antibodies were also added. Total protein content was estimated by Bradford Assay (BioRad, 500-0006), and even loading for all experiments was confirmed by Western blot for B-Actin.
The inventors next tested the effect of hypoxia on the binding of IRP1 to the HIF-2a wild-type IRE. […] This is due to decreased mRNA binding, as western blots confirm that neither compound application nor hypoxia affects IRP1 protein expression. The involvement of IRP1 was further confirmed with super-shifting experiments with IRP1 antibody (FIG. 7C). No supershifted bands were observed using IRP2 antibody.
Inventors discovered that compound 76 increased the residual amount of IRP1 bound to the HIF-2a IRE in hypoxia, although not to the same extent as that observed in normoxic cells. […] Lastly, to further investigate the involvement of IRP2 in HIF-2a IRE, the inventors compared side by side IRP2 binding to HIF-2a and Ferritin-L IRE in 786-O cells, in conditions of normoxia or hypoxia and after treatment with compound 76 or DFO (FIG. 7E). While IRP2 binding was clearly detected on Ferritin IRE, the inventors were not able to detect measurable IRP2 binding on HIF-2a IRE.
To examine this latter possibility the inventors performed an electophoretic mobility shift assay (EMSA) using a radiolabeled wild type or mutant IRE probe to determine if IRP1 binding is increased (FIG. 18A). […] This shifted band can be supershifted with IRP1 but not IRP2 antibodies (data not shown). To further examine the ability of PGJ2 to enhance IRP1 activity under conditions of normoxia and hypoxia the inventors tested its effect at various concentrations of ambient oxygen, corresponding to physiologic or extreme conditions of tissue oxygenation.

Row | Structure (SMILES) | hypoxic induction of HIF-1a [1] | regulation of HIF target genes [2] | NES, gene set PRC3, VHL null (markers of PRC3 cells compared to WT8 cells) [2] | NES, gene set Schofield, HIF (validated HIF-regulated genes) [2] | NES, gene set Staller, VHL WT (markers of VHL WT cells compared to VHL null cells) [2] | NES, gene set Staller, VHL null (markers of VHL null cells compared to VHL WT cells) [2] | NES, gene set WT8, VHL WT (markers of WT8 cells compared to PRC3 cells) [2] | binding of IRP1 to HIF-2a IRE probe [3] | binding of IRP1 to wild-type HIF-2a probe in hypoxia ([3]; 786-O cells, 24 hours hypoxia)
1 | C/C(=C\c1ccccc1)C(=O)CCN(C)C.Cl [Compound 40, 5-(dimethylamino)-2-methyl-1-phenyl-1-penten-3-one hydrochloride] | indirectly suppress hypoxic induction of HIF-1a in multiple cell types | coordinately downregulate HIF target genes | NES: −3.50 | NES: −1.65 | NES: −1.75 | NES: −2.48 | NES: −1.86 | enhance binding of IRP1 to the HIF-2a IRE | 
2 | COc1ccc(O)c(/C=C/C(=O)c2c(O)cc(C)oc2=O)c1 [Compound 41, 4-hydroxy-3-[3-(2-hydroxy-5-meoxyphenyl)acryloyl]-6-methyl-2H-pyran-2-one] | indirectly suppress hypoxic induction of HIF-1a in multiple cell types | coordinately downregulate HIF target genes | NES*: −2.98 | NES: −1.62 | NES: 1.62 | NES: −2.42 | NES: 1.58 | enhance binding of IRP1 to the HIF-2a IRE | 
3 | COC(=O)c1sccc1N/N=C(/C#N)S(C)(=O)=O [Compound 76, methyl 3-{2-[cyano(methylsulfonyl)methylene] hydrazino}thiophene-2-carboxylate] | indirectly suppress hypoxic induction of HIF-1a in multiple cell types | coordinately downregulate HIF target genes | NES: −3.15 | NES: −1.78 | NES: 1.53 | NES: −2.45 | NES: 1.88 | enhance binding of IRP1 to the HIF-2a IRE | enhances binding of IRP1 to wild-type HIF-2a probe in hypoxia
4 | CC1(C)CC(=O)C=C(Sc2ccc(C#N)cc2[N+](=O)[O-])S1 [Compound 77, 4-[(2,2-dimethyl-4-oxo-3,4-dihydro-2H-thiin-6-yl)thio]-3-nitrobenzonitrile] | indirectly suppress hypoxic induction of HIF-1a in multiple cell types | coordinately downregulate HIF target genes | NES: −3.15 | NES: −1.78 | NES: 1.53 | NES: −2.45 | NES: 1.88 | enhance binding of IRP1 to the HIF-2a IRE | 
5 | CCCCC/C=C/C=C1/C(=O)C=C[C@@H]1C/C=C\CCCC(=O)O [PGJ2, 15-deoxy-Δ^12,14-prostaglandin J2] |  |  |  |  |  |  |  | increased the specific IRE binding activity of cell lysates under conditions of both normoxia and hypoxia | 
